The results in this text go back to ChEMBL document CHEMBL1201862, “PubChem BioAssay data set” (2004).

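In this assay, cells in 96-well plates receive the compound at five concentrations for 48 hours. Endpoints are linearly interpolated between the surrounding concentrations. GI50 marks 50% less growth.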 Active and inactive are the calls of the source. No stated cut-off is given here; in the data, active = GI50 up to about 1.1 µM and inactive = higher.

Test systems include SF-295; U-251; SF-268; NCI-H460; KM12; M14; SR; SK-MEL-28; HCC 2998; CAKI-1; OVCAR-4; HT-29; SNB-75; 786-0; OVCAR-5; HCT-116; CCRF-CEM; RXF 393.
Holding throughout (experiment): DTP human tumour cell line panel, 48 h

For `CC(C)COC(=O)c1ccc(/N=C\c2ccc(/C=N/c3ccc(C(=O)OCC(C)C)cc3)cc2)cc1`, the GI50 in the test on SF-295, with U-251, in the test with SF-268, in the test with NCI-H460, with KM12 and with M14 was > 100 µM (inactive) each time. Also, the GI50 in the test on SR, in the test on SK-MEL-28, in the test with HCC 2998, in the test with CAKI-1, in the test with OVCAR-4 and in the test with HT-29 was > 100 µM (inactive) in each case. Also, the GI50 in the test on SNB-75, in the test with 786-0 and in the test with OVCAR-5 was > 100 µM (inactive) each time.
In the case of `CNc1nc(N)cc(O)n1`, the GI50 in the test on SF-295, with U-251, in the test with SF-268, in the test on NCI-H460, in the test on HCT-116 and with KM12 was > 100 µM (inactive) in each case. Besides, the GI50 in the test with M14, with SK-MEL-28, in the test with HCC 2998, in the test with CAKI-1, in the test with OVCAR-4 and in the test on HT-29 was > 100 µM (inactive) throughout. Besides, the GI50 with SNB-75, in the test with 786-0, in the test on CCRF-CEM and in the test with OVCAR-5 was > 100 µM (inactive) in each case.
As to `O=C1C=Cc2noc3cccc1c23`, the GI50 was 18.6 µM (inactive) in the test on SF-295; 13.4 µM (inactive) in the test on U-251; 3.15 µM (inactive) in the test with SF-268; 2.11 µM (inactive) in the test with HCT-116; 2.52 µM (inactive) in the test on RXF 393; 4.85 µM (inactive) in the test with KM12. The GI50 with M14 was 9.08 µM (inactive); in the test on SK-MEL-28 it was 5.47 µM (inactive); in the test on HCC 2998, 14.7 µM (inactive); in the test with CAKI-1, 12.5 µM (inactive); in the test with OVCAR-4, 2.07 µM (inactive); in the test with HT-29 it was 15.1 µM (inactive). Moreover, the GI50 was 11.6 µM (inactive) in the test on SNB-75, 7.08 µM (inactive) in the test with 786-0, 0.412 µM (active) in the test with CCRF-CEM and 14.5 µM (inactive) in the test on OVCAR-5.
For `COc1c(Br)cc(Br)c(OC)c1-c1[nH]c(Br)c(Br)c1Br`, the GI50 in the test with SF-295 was 4.63 µM (inactive); in the test on U-251, 10.4 µM (inactive); in the test with SF-268 it was 3.78 µM (inactive); in the test with NCI-H460, 9.48 µM (inactive); in the test on HCT-116 it was 3.25 µM (inactive); in the test with RXF 393 it was 1.36 µM (inactive). The GI50 is 4.48 µM (inactive) with KM12; 7.16 µM (inactive) in the test with M14; 6.65 µM (inactive) with SK-MEL-28; 6.76 µM (inactive) in the test on HCC 2998; 2.52 µM (inactive) in the test with CAKI-1; 4.28 µM (inactive) with OVCAR-4. The GI50 in the test with HT-29 was 4.17 µM (inactive); in the test on SNB-75, 4.45 µM (inactive); in the test with 786-0, 10.7 µM (inactive); in the test on CCRF-CEM it was 4.34 µM (inactive); in the test with OVCAR-5 it was 14.3 µM (inactive).
Regarding `CN(C)CC(/C(Cc1ccccc1)=N\NC(=O)c1ccncc1)c1ccccc1` (stereo unspecified), the GI50 is 17.4 µM (inactive) in the test on SF-295; 33.4 µM (inactive) in the test on SF-268; 28.7 µM (inactive) with RXF 393; 25.5 µM (inactive) with M14; 45.9 µM (inactive) in the test with SK-MEL-28; 39.1 µM (inactive) in the test with HCC 2998. Moreover, the GI50 in the test with CAKI-1 was 44.3 µM (inactive); in the test on OVCAR-4 it was 36.7 µM (inactive); in the test on HT-29, 41 µM (inactive); in the test with SNB-75, 36.1 µM (inactive); with 786-0, 30 µM (inactive); with CCRF-CEM, 17.2 µM (inactive). Moreover, the GI50 in the test on OVCAR-5 is 83.8 µM (inactive).
In the case of `CCOc1ccc(-c2oc(/C=N/NS(=O)(=O)c3ccc(C)cc3)c([N+](=O)[O-])c2-c2ccc(OCC)cc2)cc1`, the GI50 was 14.4 µM (inactive) in the test on SF-295; 8.22 µM (inactive) in the test on U-251; 17.9 µM (inactive) with SF-268; 13.2 µM (inactive) with NCI-H460; 2.03 µM (inactive) with HCT-116; 12.3 µM (inactive) in the test on RXF 393. The GI50 in the test with KM12 is 8.81 µM (inactive); with M14, 12.4 µM (inactive); in the test with SK-MEL-28 it was 12.4 µM (inactive); in the test with HCC 2998, 14.4 µM (inactive); in the test on CAKI-1, 10.3 µM (inactive); in the test on OVCAR-4, 11.3 µM (inactive). In addition, the GI50 was 5.19 µM (inactive) with HT-29; 4.19 µM (inactive) with SNB-75; 12.4 µM (inactive) in the test on 786-0; 2.54 µM (inactive) in the test with CCRF-CEM; 11.5 µM (inactive) in the test on OVCAR-5.
`C/C(=N\NS(=O)(=O)c1ccc(C)cc1)c1ccc[n+]([O-])n1`: the GI50 with SF-295, with U-251, in the test on SF-268, with NCI-H460, with HCT-116 and with KM12 was > 100 µM (inactive) each time. Further, the GI50 with M14 was 39.6 µM (inactive); with SR, 36.7 µM (inactive); in the test on SK-MEL-28, > 100 µM (inactive); in the test with HCC 2998, > 100 µM (inactive); in the test on CAKI-1, 25.1 µM (inactive); with OVCAR-4, > 100 µM (inactive). Besides, the GI50 in the test on HT-29 was > 100 µM (inactive); in the test on SNB-75, 37.9 µM (inactive); in the test with 786-0 it was > 100 µM (inactive); in the test with CCRF-CEM it was 25.2 µM (inactive); in the test with OVCAR-5, > 100 µM (inactive).
In the case of `COC(=O)C(C)Oc1ccc(O)cc1` (stereo unspecified), the GI50 with SF-295 is > 100 µM (inactive); with U-251 it was > 100 µM (inactive); in the test with SF-268 it was 20.6 µM (inactive); with NCI-H460, > 100 µM (inactive); in the test on HCT-116, 20.9 µM (inactive); in the test on KM12 it was > 100 µM (inactive). In addition, the GI50 with M14 was > 100 µM (inactive); with SK-MEL-28 it was 29.2 µM (inactive); with HCC 2998 it was > 100 µM (inactive); with CAKI-1, > 100 µM (inactive); in the test with OVCAR-4, > 100 µM (inactive); in the test on HT-29, > 100 µM (inactive). The GI50 with SNB-75, with 786-0, in the test on CCRF-CEM and in the test with OVCAR-5 was > 100 µM (inactive) each time.
With `C#CCN(Cc1ccc2nc(-c3ccccc3)c(Cl)nc2c1)c1cc(OC)c(OC)c(OC)c1`, the GI50 in the test on SF-295 is > 100 µM (inactive); in the test on U-251, 27 µM (inactive); in the test with SF-268, 40.4 µM (inactive); in the test with NCI-H460, 46.1 µM (inactive); in the test on HCT-116 it was 40.5 µM (inactive); with RXF 393, 37.1 µM (inactive). The GI50 in the test with KM12, with M14, in the test on SK-MEL-28, in the test on HCC 2998, in the test on CAKI-1 and in the test on OVCAR-4 was > 100 µM (inactive) in each case. Moreover, the GI50 in the test with HT-29 is > 100 µM (inactive); with SNB-75, > 100 µM (inactive); in the test on 786-0, > 100 µM (inactive); in the test on CCRF-CEM, 37.2 µM (inactive); in the test on OVCAR-5 it was > 100 µM (inactive).
Consider `CC(C)=Cc1cc(C(=O)Nc2ccc(Cl)c(Cl)c2)nc(N)n1`, for which the GI50 in the test on SF-295, with U-251, with SF-268, with NCI-H460, in the test with HCT-116 and with RXF 393 was > 100 µM (inactive) in each case. The GI50 in the test with KM12, with M14, in the test on SK-MEL-28, in the test on HCC 2998, with CAKI-1 and with OVCAR-4 was > 100 µM (inactive) each time. For the same molecule, the GI50 in the test on HT-29, with SNB-75, in the test on 786-0 and in the test with OVCAR-5 was > 100 µM (inactive) in each case.
As for `Cc1ccc2nc(NC(=O)C(=O)C(C#N)c3ccc(Cl)cc3)sc2c1` (stereo unspecified), the GI50 with SF-295, with U-251, in the test with SF-268, in the test on NCI-H460, with HCT-116 and in the test with RXF 393 was > 50 µM (inactive) in each case. For the same molecule, the GI50 in the test with KM12, with M14, with SK-MEL-28, in the test on HCC 2998, in the test with CAKI-1 and with OVCAR-4 was > 50 µM (inactive) each time. Besides, the GI50 in the test with HT-29, in the test on SNB-75, with 786-0 and with OVCAR-5 was > 50 µM (inactive) in each case.
Regarding `COc1ccc(OC)c(N2CC(N)C2=O)c1` (stereo unspecified), the GI50 in the test with SF-295, in the test on U-251, with SF-268, in the test with NCI-H460, in the test with HCT-116 and in the test with RXF 393 was > 100 µM (inactive) throughout. Also, the GI50 in the test on KM12, in the test with M14, with SK-MEL-28, in the test on HCC 2998, in the test on OVCAR-4 and in the test on HT-29 was > 100 µM (inactive) each time. Besides, the GI50 in the test with SNB-75 is 86.7 µM (inactive); with 786-0, > 100 µM (inactive); with CCRF-CEM, > 100 µM (inactive).
